According to ChEMBL document CHEMBL1671734, “An ertapenem-resistant extended-spectrum-beta-lactamase-producing Klebsiella pneumoniae clone carries a novel OmpK36 porin variant” (2010):
In brackets after ≈: the same amount, converted by molar mass.

Tests used:
Type in all cases: functional
Klebsiella pneumoniae [1] = experiment: Antimicrobial activity against ESBL-positive Klebsiella pneumoniae 18918 harboring porin OmpK36V mutant gene by microdilution method
Klebsiella pneumoniae [2] = experiment: Antimicrobial activity against ESBL-positive Klebsiella pneumoniae 17829 by microdilution method
Klebsiella pneumoniae [3] = experiment: Antimicrobial activity against ESBL-positive Klebsiella pneumoniae 26077 harboring porin OmpK36V mutant gene by microdilution method
Klebsiella pneumoniae [4] = experiment: Antimicrobial activity against ESBL-positive Klebsiella pneumoniae 17049 harboring porin OmpK36V mutant gene by microdilution method
Klebsiella pneumoniae [5] = experiment: Antimicrobial activity against ESBL-positive Klebsiella pneumoniae 18260 harboring pSHA2-encoded porin OmpK36 gene by microdilution method
Klebsiella pneumoniae [6] = experiment: Antimicrobial activity against ESBL-positive Klebsiella pneumoniae 18260 by microdilution method
Klebsiella pneumoniae [7] = experiment: Antimicrobial activity against ESBL-positive Klebsiella pneumoniae 17830 harboring porin OmpK36V mutant gene by microdilution method
Klebsiella pneumoniae [8] = experiment: Antimicrobial activity against ESBL-positive Klebsiella pneumoniae 6267 harboring porin OmpK36V mutant gene by microdilution method
Klebsiella pneumoniae [9] = experiment: Antimicrobial activity against ESBL-positive Klebsiella pneumoniae 11932 harboring porin OmpK36 gene by microdilution method
Klebsiella pneumoniae [10] = experiment: Antimicrobial activity against ESBL-positive Klebsiella pneumoniae 16830 harboring porin OmpK36 gene by microdilution method
Klebsiella pneumoniae [11] = experiment: Antimicrobial activity against ESBL-positive Klebsiella pneumoniae 17829 harboring pSHA2-encoded porin OmpK36 gene by microdilution method
Klebsiella pneumoniae [12] = experiment: Antimicrobial activity against ESBL-positive Klebsiella pneumoniae 16855 harboring porin OmpK36 and OmpK35 genes by Etest by microdilution method
Klebsiella pneumoniae [13] = experiment: Antimicrobial activity against ESBL-positive Klebsiella pneumoniae 29459 harboring porin OmpK36 gene by microdilution method
Klebsiella pneumoniae [14] = experiment: Antimicrobial activity against ESBL-positive Klebsiella pneumoniae 25008 by microdilution method
Klebsiella pneumoniae [15] = experiment: Antimicrobial activity against ESBL-negative Klebsiella pneumoniae 299332 harboring porin OmpK36 gene by microdilution method
Klebsiella pneumoniae [16] = experiment: Antimicrobial activity against ESBL-positive Klebsiella pneumoniae 69928 harboring porin OmpK36V mutant gene by microdilution method
Klebsiella pneumoniae [17] = experiment: Antimicrobial activity against ESBL-positive Klebsiella pneumoniae 71697 harboring porin OmpK36V mutant gene by microdilution method
Klebsiella pneumoniae [18] = experiment: Antimicrobial activity against ESBL-positive Klebsiella pneumoniae 50748 harboring porin OmpK36 gene by microdilution method
Klebsiella pneumoniae [19] = experiment: Antimicrobial activity against ESBL-positive Klebsiella pneumoniae 287942 harboring porin OmpK36 gene by microdilution method
Klebsiella pneumoniae [20] = experiment: Antimicrobial activity against ESBL-positive Klebsiella pneumoniae 19039 harboring porin OmpK36V mutant gene by microdilution method
Klebsiella pneumoniae [21] = experiment: Antimicrobial activity against ESBL-positive Klebsiella pneumoniae 31750 harboring porin OmpK36 gene by microdilution method
Klebsiella pneumoniae [22] = experiment: Antimicrobial activity against ESBL-negative Klebsiella pneumoniae 30018 harboring porin OmpK35 gene by microdilution method
Klebsiella pneumoniae [23] = experiment: Antimicrobial activity against ESBL-positive Klebsiella pneumoniae 29830 harboring porin OmpK36V mutant gene by microdilution method
Klebsiella pneumoniae [24] = experiment: Antimicrobial activity against ESBL-positive Klebsiella pneumoniae 17834 harboring porin OmpK36V mutant gene by microdilution method
Klebsiella pneumoniae [25] = experiment: Antimicrobial activity against ESBL-positive Klebsiella pneumoniae 18567 harboring porin OmpK36V mutant gene by microdilution method
Klebsiella pneumoniae [26] = experiment: Antimicrobial activity against ESBL-positive Klebsiella pneumoniae 69036 harboring porin OmpK36V mutant gene by microdilution method

SMILES: C[C@@H](O)[C@H]1C(=O)N2C(C(=O)O)=C(S[C@@H]3CN[C@H](C(=O)Nc4cccc(C(=O)O)c4)C3)[C@H](C)[C@H]12 [ERTAPENEM]
- MIC (Klebsiella pneumoniae [1]): 8 µg/mL (≈ 16.8 µM)
- MIC (Klebsiella pneumoniae [2]): 128 µg/mL (≈ 269 µM)
- MIC (Klebsiella pneumoniae [3]): 6 µg/mL (≈ 12.6 µM)
- MIC (Klebsiella pneumoniae [4]): 8 µg/mL (≈ 16.8 µM)
- MIC (Klebsiella pneumoniae [5]): 16 µg/mL (≈ 33.6 µM)
- MIC (Klebsiella pneumoniae [6]): 128 µg/mL (≈ 269 µM)
- MIC (Klebsiella pneumoniae [7]): 8 µg/mL (≈ 16.8 µM)
- MIC (Klebsiella pneumoniae [8]): 4 µg/mL (≈ 8.41 µM)
- MIC (Klebsiella pneumoniae [9]): 0.19 µg/mL (≈ 0.4 µM)
- MIC (Klebsiella pneumoniae [10]): 0.125 µg/mL (≈ 0.263 µM)
- MIC (Klebsiella pneumoniae [11]): 16 µg/mL (≈ 33.6 µM)
- MIC (Klebsiella pneumoniae [12]): 0.094 µg/mL (≈ 0.198 µM)
- MIC (Klebsiella pneumoniae [13]): 0.25 µg/mL (≈ 0.526 µM)
- MIC (Klebsiella pneumoniae [14]): 16 µg/mL (≈ 33.6 µM)
- MIC (Klebsiella pneumoniae [15]): 0.016 µg/mL (≈ 0.0336 µM)
- MIC (Klebsiella pneumoniae [16]): 6 µg/mL (≈ 12.6 µM)
- MIC (Klebsiella pneumoniae [17]): 8 µg/mL (≈ 16.8 µM)
- MIC (Klebsiella pneumoniae [18]): 0.25 µg/mL (≈ 0.526 µM)
- MIC (Klebsiella pneumoniae [19]): 0.19 µg/mL (≈ 0.4 µM)
- MIC (Klebsiella pneumoniae [20]): 8 µg/mL (≈ 16.8 µM)
- MIC (Klebsiella pneumoniae [21]): 0.125 µg/mL (≈ 0.263 µM)
- MIC (Klebsiella pneumoniae [22]): 0.023 µg/mL (≈ 0.0484 µM)
- MIC (Klebsiella pneumoniae [23]): 6 µg/mL (≈ 12.6 µM)
- MIC (Klebsiella pneumoniae [24]): 6 µg/mL (≈ 12.6 µM)
- MIC (Klebsiella pneumoniae [25]): 6 µg/mL (≈ 12.6 µM)
- MIC (Klebsiella pneumoniae [26]): 6 µg/mL (≈ 12.6 µM)
